# Data taken from patent US8802597B2, “Herbicidal pyrimidines” (E I du Pont de Nemours and Company, priority 2003, dated 2014).
# Like-named read-outs stand apart in the source and are kept apart here.
# How the values were obtained:
# Assay type in all cases: in vivo
# [1] = system: eastern black nightshade (Solanum ptycanthum); experiment: Test C pre/postemergence; details: Preemergence
# Summary of the method: (§1)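 Seeds sown and sprayed preemergence with test compound in non-phytotoxic solvent containing surfactant; postemergence sprays, same formulation, went onto plants 2 to 18 cm tall (1- to 4-leaf stage). Plants held in greenhouse 12 to 14 days, then visually rated against untreated controls on a 0–100 scale (0 no effect, 100 complete control).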
# [2] = system: woolly cupgrass (Eriochloa villosa); experiment: Test C pre/postemergence; details: for pest or weed control at 62 g/ha / pest or weed control at 125 g/ha / pest or weed control at 250 g/ha / pest or weed control at 500 g/ha: Eriochloa villosa; for pest or weed control at 500 g/ha: 500 g ai/ha
# Summary of the method: as §1
# [3] = system: morningglory (Ipomoea coccinea); experiment: Test C pre/postemergence; details: for pest or weed control at 62 g/ha / pest or weed control at 125 g/ha / pest or weed control at 250 g/ha / pest or weed control at 500 g/ha: Ipomoea; for pest or weed control at 500 g/ha: 500 g ai/ha
# Summary of the method: as §1
# [4] = system: chickweed (Stellaria media); experiment: Test C postemergence; details: for Plant response rating, Chickweed: scale 0 to 100
# Summary of the method: as §1
# [5] = 31 g ai/ha, scale 0 to 100, 0 no effect, 100 complete control
# [6] = 62 g ai/ha, scale 0 to 100, 0 no effect, 100 complete control
# [7] = Postemergence, 62 g ai/ha, scale 0 to 100 (0 no effect, 100 complete control)
# [8] = Postemergence, 125 g ai/ha, scale 0 to 100 (0 no effect, 100 complete control)
# [9] = Postemergence, 250 g ai/ha, scale 0 to 100
# [10] = Preemergence, 31 g ai/ha, scale 0 to 100, 0 no effect, 100 complete control
# [11] = Preemergence, 62 g ai/ha, scale 0 to 100, 0 no effect, 100 complete control
# [12] = Preemergence, 125 g ai/ha, scale 0 to 100
# [13] = Preemergence, 250 g ai/ha, scale 0 to 100
# [14] = Preemergence, 16 g ai/ha, scale 0 to 100, 0 no effect, 100 complete control
smiles,measurement,setting,value
CCCCOC(=O)c1nc(C2CC2)nc(N)c1Br [Compound 16],"Plant response rating, Nightshade",[1]; [5],55
same,"Plant response rating, Nightshade",[1]; [6],90
same,"Plant response rating, Nightshade","[1]; 125 g ai/ha, scale 0 to 100",95
same,"Plant response rating, Nightshade","[1]; 250 g ai/ha, scale 0 to 100",100
same,"Plant response rating (scale of 0 to 100), Cupgrass, Woolly","[2]; Postemergence, 31 g ai/ha",0
same,"Cupgrass, Woolly plant response rating",[2]; [7],0
same,"Cupgrass, Woolly plant response rating",[2]; [8],0
same,"Plant response rating, Cupgrass, Woolly",[2]; [9],65
same,"Plant response rating, Cupgrass, Woolly",[2]; [10],0
same,"Plant response rating, Cupgrass, Woolly",[2]; [11],0
same,"Plant response rating, Cupgrass, Woolly",[2]; [12],15
same,"Plant response rating, Cupgrass, Woolly",[2]; [13],65
same,"Plant response rating (scale of 0 to 100), Morningglory","[3]; Postemergence, 31 g ai/ha",85
same,Morningglory plant response rating,[3]; [7],95
same,Morningglory plant response rating,[3]; [8],100
same,"Plant response rating, Morningglory",[3]; [9],100
same,"Plant response rating, Morningglory",[3]; [10],65
same,"Plant response rating, Morningglory",[3]; [11],95
same,"Plant response rating, Morningglory",[3]; [12],100
same,"Plant response rating, Morningglory",[3]; [13],100
same,"Plant response rating (scale of 0 to 100), Chickweed",[4]; 31 g ai/ha,0
same,Chickweed plant response rating,"[4]; 62 g ai/ha, scale 0 to 100 (0 no effect, 100 complete control)",0
same,"Plant response rating, Chickweed",[4]; 125 g ai/ha,20
same,"Plant response rating, Chickweed",[4]; 250 g ai/ha,35
CCCCOC(=O)c1nc(C2CC2)nc(N)c1Cl [Compound 76],"Plant response rating, Nightshade","[1]; 16 g ai/ha, scale 0 to 100, 0 no effect, 100 complete control",30
same,"Plant response rating, Nightshade",[1]; [5],40
same,"Plant response rating, Nightshade",[1]; [6],60
same,"Plant response rating, Nightshade","[1]; scale 0 to 100, 0 no effect, 100 complete control",100
same,"Plant response rating (scale of 0 to 100), Cupgrass, Woolly","[2]; Postemergence, 16 g ai/ha",55
same,"Plant response rating (scale of 0 to 100), Cupgrass, Woolly","[2]; Postemergence, 31 g ai/ha",60
same,"Plant response rating (scale of 0 to 100), Cupgrass, Woolly","[2]; Postemergence, 62 g ai/ha",80
same,"Cupgrass, Woolly plant response rating",[2]; [8],95
same,"Plant response rating, Cupgrass, Woolly",[2]; [14],0
same,"Plant response rating, Cupgrass, Woolly",[2]; [10],0
same,"Plant response rating, Cupgrass, Woolly",[2]; [11],20
same,"Plant response rating, Cupgrass, Woolly",[2]; [12],50
same,"Plant response rating (scale of 0 to 100), Morningglory","[3]; Postemergence, 16 g ai/ha",95
same,"Plant response rating (scale of 0 to 100), Morningglory","[3]; Postemergence, 31 g ai/ha",95
same,"Plant response rating (scale of 0 to 100), Morningglory","[3]; Postemergence, 62 g ai/ha",95
same,Morningglory plant response rating,[3]; [8],100
same,"Plant response rating, Morningglory",[3]; [14],40
same,"Plant response rating, Morningglory",[3]; [10],60
same,"Plant response rating, Morningglory",[3]; [11],100
same,"Plant response rating, Morningglory",[3]; [12],100
same,"Plant response rating (scale of 0 to 100), Chickweed",[4]; 16 g ai/ha,35
same,"Plant response rating (scale of 0 to 100), Chickweed",[4]; 31 g ai/ha,45
same,"Plant response rating (scale of 0 to 100), Chickweed",[4]; 62 g ai/ha,70
same,Chickweed plant response rating,"[4]; 125 g ai/ha, scale 0 to 100 (0 no effect, 100 complete control)",95
CNc1nc(C2CC2)nc(C(=O)OC)c1Br [Compound 5],pest or weed control at 62 g/ha,"[1]; Solanum, pre-emergence, 62 g ai/ha, scale 0 to 100, 0 no effect, 100 complete control, read-out: Plant response rating, Nightshade",100%
same,pest or weed control at 125 g/ha,"[1]; Solanum, pre-emergence, 125 g ai/ha, scale 0 to 100, read-out: Plant response rating, Nightshade",100%
same,pest or weed control at 250 g/ha,"[1]; Solanum, pre-emergence, 250 g ai/ha, scale 0 to 100, read-out: Plant response rating, Nightshade",100%
same,pest or weed control at 500 g/ha,"[1]; Solanum, pre-emergence, 500 g ai/ha, scale 0 to 100, read-out: Plant response rating, Nightshade",100%
same,pest or weed control at 62 g/ha,"[2]; post-emergence, Postemergence, 62 g ai/ha, scale 0 to 100 (0 no effect, 100 complete control), read-out: Cupgrass, Woolly plant response rating",5%
same,pest or weed control at 125 g/ha,"[2]; post-emergence, Postemergence, 125 g ai/ha, scale 0 to 100 (0 no effect, 100 complete control), read-out: Cupgrass, Woolly plant response rating",50%
same,pest or weed control at 250 g/ha,"[2]; post-emergence, Postemergence, 250 g ai/ha, scale 0 to 100, read-out: Plant response rating, Cupgrass, Woolly",50%
same,pest or weed control at 500 g/ha,"[2]; post-emergence, Postemergence, scale 0 to 100, read-out: Plant response rating, Cupgrass, Woolly",70%
same,pest or weed control at 62 g/ha,"[2]; pre-emergence, Preemergence, 62 g ai/ha, scale 0 to 100, 0 no effect, 100 complete control, read-out: Plant response rating, Cupgrass, Woolly",0%
same,pest or weed control at 125 g/ha,"[2]; pre-emergence, Preemergence, 125 g ai/ha, scale 0 to 100, read-out: Plant response rating, Cupgrass, Woolly",0%
same,pest or weed control at 250 g/ha,"[2]; pre-emergence, Preemergence, 250 g ai/ha, scale 0 to 100, read-out: Plant response rating, Cupgrass, Woolly",0%
same,pest or weed control at 500 g/ha,"[2]; pre-emergence, Preemergence, scale 0 to 100, read-out: Plant response rating, Cupgrass, Woolly",0%
same,pest or weed control at 62 g/ha,"[3]; post-emergence, Postemergence, 62 g ai/ha, scale 0 to 100 (0 no effect, 100 complete control), read-out: Morningglory plant response rating",95%
same,pest or weed control at 125 g/ha,"[3]; post-emergence, Postemergence, 125 g ai/ha, scale 0 to 100 (0 no effect, 100 complete control), read-out: Morningglory plant response rating",95%
same,pest or weed control at 250 g/ha,"[3]; post-emergence, Postemergence, 250 g ai/ha, scale 0 to 100, read-out: Plant response rating, Morningglory",100%
same,pest or weed control at 500 g/ha,"[3]; post-emergence, Postemergence, scale 0 to 100, read-out: Plant response rating, Morningglory",100%
same,pest or weed control at 62 g/ha,"[3]; pre-emergence, Preemergence, 62 g ai/ha, scale 0 to 100, 0 no effect, 100 complete control, read-out: Plant response rating, Morningglory",50%
same,pest or weed control at 125 g/ha,"[3]; pre-emergence, Preemergence, 125 g ai/ha, scale 0 to 100, read-out: Plant response rating, Morningglory",80%
same,pest or weed control at 250 g/ha,"[3]; pre-emergence, Preemergence, 250 g ai/ha, scale 0 to 100, read-out: Plant response rating, Morningglory",90%
same,pest or weed control at 500 g/ha,"[3]; pre-emergence, Preemergence, scale 0 to 100, read-out: Plant response rating, Morningglory",100%
same,pest or weed control at 62 g/ha,"[4]; Stellaria media, post-emergence, 62 g ai/ha, scale 0 to 100 (0 no effect, 100 complete control), read-out: Chickweed plant response rating",0%
same,pest or weed control at 125 g/ha,"[4]; Stellaria media, post-emergence, 125 g ai/ha, scale 0 to 100, read-out: Plant response rating, Chickweed",10%
same,pest or weed control at 250 g/ha,"[4]; Stellaria media, post-emergence, 250 g ai/ha, scale 0 to 100, read-out: Plant response rating, Chickweed",20%
